Here are results for 38 molecules from US20150239889A1, “PYRAZOLOPYRIMIDINE COMPOUND” (MITSUBISHI TANABE PHARMA CORPORATION, priority 2012, published 2015).

For one assay, the target named is T1, human HIF-PHD2 (Homo sapiens, UniProt Q9GZT9).
T1 construct: purchased CrystalGenomics Ltd
As to the kind of experiment: HIF-PHD inhibition assay (fluorescence polarization), human HIF-PHD2. To be noted: 2-oxoglutaric acid 3.33 μmol/L. The format is biochemical. The procedure: (§1) The activity of the test compound to inhibit human HIF-PHD2 and human HIF-PHD3 was determined.
(§2) The value of enzyme activity was calculated by subtracting the value of fluorescence polarization before addition of the enzyme from the value of fluorescence polarization after addition of enzyme (mP value).
(§3) FAM: 5′-fluoresceinamide ACA: aminocaproic acid
Background: Polarisation of emitted light reports the rotation of a fluorescent probe.

For the next assay, the target named is T2, human HIF-PHD3 (Homo sapiens, UniProt Q9H6Z9).
T2 construct: purchased CrystalGenomics Ltd
As to the kind of experiment: HIF-PHD inhibition assay (fluorescence polarization), human HIF-PHD3. To be noted: 2-oxoglutaric acid 166 μmol/L. The format is biochemical. The procedure:
as §1, §2, §3

T2 sequence (Q9H6Z9 whole entry): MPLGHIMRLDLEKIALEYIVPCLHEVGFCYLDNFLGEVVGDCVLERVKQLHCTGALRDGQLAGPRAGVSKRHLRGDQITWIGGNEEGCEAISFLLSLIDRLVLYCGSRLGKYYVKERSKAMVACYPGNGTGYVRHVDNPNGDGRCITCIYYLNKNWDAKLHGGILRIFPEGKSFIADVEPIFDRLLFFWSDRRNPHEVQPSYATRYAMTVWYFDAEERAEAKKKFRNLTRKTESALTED
T1 sequence (Q9GZT9 2-426 limits assumed): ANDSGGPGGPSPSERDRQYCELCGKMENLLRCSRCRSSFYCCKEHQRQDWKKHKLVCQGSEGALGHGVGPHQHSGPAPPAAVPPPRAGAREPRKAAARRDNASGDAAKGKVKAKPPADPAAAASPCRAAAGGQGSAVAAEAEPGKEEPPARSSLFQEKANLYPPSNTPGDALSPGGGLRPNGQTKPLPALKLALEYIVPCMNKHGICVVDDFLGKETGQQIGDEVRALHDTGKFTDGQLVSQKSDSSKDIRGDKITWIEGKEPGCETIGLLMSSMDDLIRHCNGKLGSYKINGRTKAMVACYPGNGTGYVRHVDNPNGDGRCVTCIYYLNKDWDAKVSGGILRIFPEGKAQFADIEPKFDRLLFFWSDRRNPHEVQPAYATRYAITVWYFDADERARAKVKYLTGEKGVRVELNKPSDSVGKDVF

Turning to `CC(C)C(c1ccc(C(F)(F)F)cc1)n1ncc2nc(-n3cc(C(=O)O)cn3)nc(O)c21` (single isomer, unassigned) [Example 357], the results for the 50% inhibitory concentration (IC50) against human HIF-PHD2 and at human HIF-PHD3 were 77 nM and 390 nM, respectively.
In the case of `CC[C@H]1CC[C@H](n2nc(F)c3nc(-n4cc(C(=O)O)cn4)nc(O)c32)CC1` [Example 480], the half-inhibitory concentration (IC50) turned out to be 47 nM on human HIF-PHD2 and 670 nM against human HIF-PHD3.
Consider `CCC(c1ccc(C)cc1)n1ncc2nc(-n3cc(C(=O)O)cn3)nc(O)c21` (stereo not shown) [Example 328], for which the IC50 on human HIF-PHD2 turned out to be 60 nM; against human HIF-PHD3, 530 nM.
In the same order, the values of `CC(C)n1ncc2nc(-n3cc(C(=O)O)cn3)nc(O)c21` [Example 486] are 120 nM and 2200 nM.
In the case of `Cc1ccc(C)c([C@H](C)n2ncc3nc(-n4cc(C(=O)O)cn4)nc(O)c32)c1` [Example 283], the concentration for half-maximal inhibition (IC50) against human HIF-PHD2 is 68 nM; against human HIF-PHD3, more than 3000 nM.
For `C[C@@H](c1cc(C(F)(F)F)ccc1C(F)(F)F)n1ncc2nc(-n3cc(C(=O)O)cn3)nc(O)c21` [Example 275], the IC50 on human HIF-PHD2 was 120 nM; against human HIF-PHD3, 920 nM.
Turning to `C[C@@H](c1cc(F)cc(C(F)(F)F)c1)n1ncc2nc(-n3cc(C(=O)O)cn3)nc(O)c21` [Example 274], the IC50 against human HIF-PHD2 was 38 nM; against human HIF-PHD3, 380 nM.
The corresponding values for `O=C(O)c1cnn(-c2nc(O)c3c(cnn3C[C@H]3CCN(c4cccc(C(F)(F)F)c4)C3)n2)c1` [Example 429] are 22 nM and 540 nM.
In the same order, the values of `CC1(C)CCC(n2ncc3nc(-n4cc(C(=O)O)cn4)nc(O)c32)CC1` [Example 386] are 38 nM and 840 nM.
For the molecule `CC1(C)CCCC(n2ncc3nc(-n4cc(C(=O)O)cn4)nc(O)c32)C1` (single isomer, unassigned) [Example 412], the IC50 stood at 43 nM against human HIF-PHD2 and 590 nM on human HIF-PHD3.
`C[C@H](c1cc(F)cc(C(F)(F)F)c1)n1ncc2nc(-n3cc(C(=O)O)cn3)nc(O)c21` [Example 273]: the 50% inhibitory concentration (IC50) against human HIF-PHD2 turned out to be 92 nM; against human HIF-PHD3, 520 nM.
In the same order, the values of `C[C@@H](C1CCN(c2ccc(C(F)(F)F)cc2)CC1)n1ncc2nc(-n3cc(C(=O)O)cn3)nc(O)c21` [Example 431] are 17 nM and 280 nM.
In the same order, the values of `CC(C)(C)Cn1nc(F)c2nc(-n3cc(C(=O)O)cn3)nc(O)c21` [Example 499] are 130 nM and 760 nM.
In the same order, the values of `CC(C)[C@H]1CC[C@H](C)C[C@H]1n1ncc2nc(-n3cc(C(=O)O)cn3)nc(O)c21` [Example 404] are 81 nM and 840 nM.
As for `O=C(O)c1cnn(-c2nc(O)c3c(cnn3[C@H]3CCN(c4ccc(C(F)(F)F)cc4)C3)n2)c1` [Example 437], the IC50 is 2.5 nM at human HIF-PHD2 and 180 nM against human HIF-PHD3.
The corresponding values for `CC(C)C(c1ccc(C(F)(F)F)cc1)n1ncc2nc(-n3cc(C(=O)O)cn3)nc(O)c21` (stereo not shown) [Example 356] are 53 nM and 710 nM.
In the same order, the values of `CC1(C)CC(=O)N(c2ccc(Cn3ncc4nc(-n5cc(C(=O)O)cn5)nc(O)c43)cc2)C1` [Example 420] are 62 nM and 490 nM.
The corresponding values for `Cc1ccc(C(C)n2ncc3nc(-n4cc(C(=O)O)cn4)nc(O)c32)cc1F` (single isomer, unassigned) [Example 296] are 55 nM and 480 nM.
Regarding `CCC(c1ccc(Cl)cc1F)n1ncc2nc(-n3cc(C(=O)O)cn3)nc(O)c21` (single isomer, unassigned) [Example 351], the IC50 against human HIF-PHD2 turned out to be 24 nM; against human HIF-PHD3, 210 nM.
In the case of `CC(c1cc(Cl)c(Cl)s1)n1ncc2nc(-n3cc(C(=O)O)cn3)nc(O)c21` (single isomer, unassigned) [Example 320], the IC50 was determined as 18 nM against human HIF-PHD2 and 480 nM against human HIF-PHD3.
The corresponding values for `Cc1ccccc1[C@H](C)n1ncc2nc(-n3cc(C(=O)O)cn3)nc(O)c21` [Example 265] are 160 nM and 780 nM.
In the same order, the values of `CC1CC(n2ncc3nc(-n4cc(C(=O)O)cn4)nc(O)c32)CC(C)(C)C1` (stereo not shown) [Example 409] are 49 nM and 420 nM.
In the case of `CC(C)[C@H]1CC[C@H](C)[C@H](n2ncc3nc(-n4cc(C(=O)O)cn4)nc(O)c32)C1` [Example 405], the IC50 on human HIF-PHD2 amounted to 110 nM; against human HIF-PHD3 it was 460 nM.
In the same order, the values of `CCC(c1cccc(C(F)(F)F)c1)n1ncc2nc(-n3cc(C(=O)O)cn3)nc(O)c21` (single isomer, unassigned) [Example 342] are 36 nM and 480 nM.
In the same order, the values of `Cc1ccc(F)c(C(C)n2ncc3nc(-n4cc(C(=O)O)cn4)nc(O)c32)c1` (stereo not shown) [Example 313] are 40 nM and 900 nM.
In the case of `CC1CC(n2ncc3nc(-n4cc(C(=O)O)cn4)nc(O)c32)CC(C)(C)C1` (stereo not shown) [Example 407], the IC50 on human HIF-PHD2 came to 37 nM; on human HIF-PHD3, 460 nM.
`CC1CC(n2ncc3nc(-n4cc(C(=O)O)cn4)nc(O)c32)CC(C)(C)C1` (single isomer, unassigned) [Example 408]: the values for the IC50 at human HIF-PHD2 and on human HIF-PHD3 were 38 nM and 400 nM, respectively.
The corresponding values for `CC(C)(Cn1ncc2nc(-n3cc(C(=O)O)cn3)nc(O)c21)c1ccc(Cl)c(Cl)c1` [Example 121] are 210 nM and 610 nM.
On to `CC(C)C(c1ccc(F)cc1)n1ncc2nc(-n3cc(C(=O)O)cn3)nc(O)c21` (single isomer, unassigned) [Example 355], for which the IC50 at human HIF-PHD2 is 120 nM; on human HIF-PHD3, 540 nM.
The corresponding values for `Cc1cc(Cn2ncc3nc(-n4cc(C(=O)O)cn4)nc(O)c32)c(F)cc1-c1ccccc1F` [Example 103] are 18 nM and 220 nM.
The corresponding values for `C[C@@H](c1ccc(F)c(Cl)c1)n1ncc2nc(-n3cc(C(=O)O)cn3)nc(O)c21` [Example 250] are 49 nM and 180 nM.
In the same order, the values of `O=C(O)c1cnn(-c2nc(O)c3c(cnn3CC(F)(F)c3ccc(Cl)cc3)n2)c1` [Example 125] are 110 nM and 910 nM.
As for `Cc1ccc(C(F)(F)F)cc1[C@H](C)n1ncc2nc(-n3cc(C(=O)O)cn3)nc(O)c21` [Example 286], the IC50 against human HIF-PHD2 was 96 nM; at human HIF-PHD3, 820 nM.
The corresponding values for `CC(C)[C@@H]1CC[C@@H](C)[C@@H](n2ncc3nc(-n4cc(C(=O)O)cn4)nc(O)c32)C1` [Example 406] are 170 nM and 680 nM.
In the same order, the values of `Cc1cc(C)cc(C(C)n2ncc3nc(-n4cc(C(=O)O)cn4)nc(O)c32)c1` (single isomer, unassigned) [Example 310] are 57 nM and 470 nM.
In the same order, the values of `CC1(C)CCCC1n1ncc2nc(-n3cc(C(=O)O)cn3)nc(O)c21` (single isomer, unassigned) [Example 418] are 83 nM and 910 nM.
Regarding `O=C(O)c1cnn(-c2nc(O)c3c(cnn3CCCOc3ccc(C4CCCCC4)cc3)n2)c1` [Example 185], the IC50 was 15 nM on human HIF-PHD2 and 330 nM on human HIF-PHD3.
In the same order, the values of `C[C@H](C1CCC(C)(C)CC1)n1ncc2nc(-n3cc(C(=O)O)cn3)nc(O)c21` [Example 383] are 110 nM and 570 nM.

In general, IC50 refers to the concentration that inhibits the measured activity by half. A low value points to greater potency.
